Reference: ChEMBL document CHEMBL5058646 (2022)

Legend:
[1] = target: Bone morphogenetic protein receptor type-2 (Homo sapiens) (UniProt Q13873); test: BMPR2 SGC Tm panel (DSF); details: Compound concentration 20.0 uM
Peregrin (Homo sapiens) = Peregrin (Homo sapiens) (UniProt P55201); test: BRPF1 SGC Tm panel (DSF); details: Compound concentration 20.0 uM
[2] = target: Mitogen-activated protein kinase kinase kinase 5 (Homo sapiens) (UniProt Q99683); test: MAP3K5 SGC Tm panel (DSF); details: Compound concentration 20.0 uM
[3] = target: Mitogen-activated protein kinase 10 (Homo sapiens) (UniProt P53779); test: MAPK10 SGC Tm panel (DSF); details: Compound concentration 20.0 uM
Mitogen-activated protein kinase 10 (Homo sapiens), sequence (P53779 whole entry): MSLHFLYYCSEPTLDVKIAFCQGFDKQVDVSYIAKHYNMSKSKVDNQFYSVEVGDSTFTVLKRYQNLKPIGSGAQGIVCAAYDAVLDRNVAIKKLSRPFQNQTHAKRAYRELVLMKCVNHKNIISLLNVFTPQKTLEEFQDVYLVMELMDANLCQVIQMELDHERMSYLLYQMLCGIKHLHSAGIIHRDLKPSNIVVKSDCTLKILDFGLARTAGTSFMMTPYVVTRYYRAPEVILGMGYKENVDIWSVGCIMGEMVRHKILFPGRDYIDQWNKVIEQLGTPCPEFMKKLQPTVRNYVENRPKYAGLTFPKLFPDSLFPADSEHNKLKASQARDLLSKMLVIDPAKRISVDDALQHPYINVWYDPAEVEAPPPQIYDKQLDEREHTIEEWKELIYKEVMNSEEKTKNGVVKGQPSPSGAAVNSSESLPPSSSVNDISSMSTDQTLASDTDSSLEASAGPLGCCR

[4] = target: Serine/threonine-protein kinase Nek2 (Homo sapiens) (UniProt P51955); test: NEK2 SGC Tm panel (DSF); details: Compound concentration 20.0 uM
Serine/threonine-protein kinase Nek2 (Homo sapiens), sequence (P51955 whole entry): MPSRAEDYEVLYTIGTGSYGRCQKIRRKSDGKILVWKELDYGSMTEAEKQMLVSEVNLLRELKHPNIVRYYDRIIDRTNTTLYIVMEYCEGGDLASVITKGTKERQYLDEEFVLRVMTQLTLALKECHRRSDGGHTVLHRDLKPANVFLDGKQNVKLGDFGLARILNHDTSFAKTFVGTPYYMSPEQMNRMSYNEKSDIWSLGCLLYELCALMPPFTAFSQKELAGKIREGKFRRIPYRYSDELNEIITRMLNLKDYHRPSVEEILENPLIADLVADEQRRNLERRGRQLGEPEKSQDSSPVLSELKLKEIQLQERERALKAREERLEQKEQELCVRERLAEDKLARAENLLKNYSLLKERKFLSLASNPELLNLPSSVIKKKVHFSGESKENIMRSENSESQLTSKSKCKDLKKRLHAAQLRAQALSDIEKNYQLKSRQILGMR

[5] = target: Ribosomal protein S6 kinase alpha-5 (Homo sapiens) (UniProt O75582); test: RPS6KA5 SGC Tm panel (DSF); details: Compound concentration 20.0 uM
Ribosomal protein S6 kinase alpha-5 (Homo sapiens), sequence (O75582 whole entry, looked up): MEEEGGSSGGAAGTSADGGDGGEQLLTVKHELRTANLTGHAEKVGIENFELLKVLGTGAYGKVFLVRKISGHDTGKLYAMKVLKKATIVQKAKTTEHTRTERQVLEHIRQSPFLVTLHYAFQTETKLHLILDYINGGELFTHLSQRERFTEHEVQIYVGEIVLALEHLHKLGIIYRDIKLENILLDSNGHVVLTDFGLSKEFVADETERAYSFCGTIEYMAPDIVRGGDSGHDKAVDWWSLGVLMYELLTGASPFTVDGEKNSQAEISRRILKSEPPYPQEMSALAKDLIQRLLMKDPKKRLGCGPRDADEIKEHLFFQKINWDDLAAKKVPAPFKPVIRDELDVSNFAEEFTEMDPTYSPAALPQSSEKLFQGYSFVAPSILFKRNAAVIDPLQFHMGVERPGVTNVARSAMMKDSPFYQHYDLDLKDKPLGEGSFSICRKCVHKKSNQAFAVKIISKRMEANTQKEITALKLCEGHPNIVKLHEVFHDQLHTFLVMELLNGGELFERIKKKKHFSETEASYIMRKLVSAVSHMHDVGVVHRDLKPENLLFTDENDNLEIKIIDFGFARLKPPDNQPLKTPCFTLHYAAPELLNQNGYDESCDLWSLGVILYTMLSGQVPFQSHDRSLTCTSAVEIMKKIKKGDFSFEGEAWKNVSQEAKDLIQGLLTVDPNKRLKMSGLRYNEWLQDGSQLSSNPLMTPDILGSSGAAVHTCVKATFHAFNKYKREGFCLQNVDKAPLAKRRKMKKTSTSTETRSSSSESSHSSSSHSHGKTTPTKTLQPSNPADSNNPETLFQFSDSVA

[6] = target: Transcription initiation factor TFIID subunit 1 (Homo sapiens) (UniProt P21675); test: TAF1 SGC Tm panel (DSF); details: Compound concentration 20.0 uM
[7] = target: Lymphokine-activated killer T-cell-originated protein kinase (Homo sapiens) (UniProt Q96KB5); test: TOPK SGC Tm panel (DSF); details: Compound concentration 20.0 uM
Lymphokine-activated killer T-cell-originated protein kinase (Homo sapiens), sequence (Q96KB5 whole entry): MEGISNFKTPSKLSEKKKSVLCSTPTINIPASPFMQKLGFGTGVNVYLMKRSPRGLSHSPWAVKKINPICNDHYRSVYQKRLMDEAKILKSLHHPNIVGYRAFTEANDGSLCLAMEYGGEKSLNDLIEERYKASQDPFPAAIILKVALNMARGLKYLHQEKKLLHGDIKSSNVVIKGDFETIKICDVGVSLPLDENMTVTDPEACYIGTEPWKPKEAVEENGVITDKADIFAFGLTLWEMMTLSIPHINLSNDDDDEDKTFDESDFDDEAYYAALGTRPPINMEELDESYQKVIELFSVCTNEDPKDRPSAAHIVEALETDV

[8] = target: 5-hydroxytryptamine receptor 6 (Homo sapiens) (UniProt P50406); details: Compound concentration 10.0 uM
5-hydroxytryptamine receptor 6 (Homo sapiens), sequence (P50406 whole entry): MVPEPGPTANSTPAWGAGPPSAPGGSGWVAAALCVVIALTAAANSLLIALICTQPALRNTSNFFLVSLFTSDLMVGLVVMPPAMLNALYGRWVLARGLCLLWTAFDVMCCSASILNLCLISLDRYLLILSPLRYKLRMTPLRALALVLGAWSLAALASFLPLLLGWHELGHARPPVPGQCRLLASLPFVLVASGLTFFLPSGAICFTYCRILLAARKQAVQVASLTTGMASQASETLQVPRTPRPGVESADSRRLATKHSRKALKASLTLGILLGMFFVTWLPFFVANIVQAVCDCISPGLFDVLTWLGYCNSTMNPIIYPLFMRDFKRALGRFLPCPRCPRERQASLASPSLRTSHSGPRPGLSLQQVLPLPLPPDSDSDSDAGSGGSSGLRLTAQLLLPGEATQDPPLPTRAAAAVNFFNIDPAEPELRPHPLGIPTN

[9] = target: Sodium-dependent noradrenaline transporter (Homo sapiens) (UniProt P23975); details: Compound concentration 10.0 uM
Sodium-dependent noradrenaline transporter (Homo sapiens), sequence (P23975 whole entry): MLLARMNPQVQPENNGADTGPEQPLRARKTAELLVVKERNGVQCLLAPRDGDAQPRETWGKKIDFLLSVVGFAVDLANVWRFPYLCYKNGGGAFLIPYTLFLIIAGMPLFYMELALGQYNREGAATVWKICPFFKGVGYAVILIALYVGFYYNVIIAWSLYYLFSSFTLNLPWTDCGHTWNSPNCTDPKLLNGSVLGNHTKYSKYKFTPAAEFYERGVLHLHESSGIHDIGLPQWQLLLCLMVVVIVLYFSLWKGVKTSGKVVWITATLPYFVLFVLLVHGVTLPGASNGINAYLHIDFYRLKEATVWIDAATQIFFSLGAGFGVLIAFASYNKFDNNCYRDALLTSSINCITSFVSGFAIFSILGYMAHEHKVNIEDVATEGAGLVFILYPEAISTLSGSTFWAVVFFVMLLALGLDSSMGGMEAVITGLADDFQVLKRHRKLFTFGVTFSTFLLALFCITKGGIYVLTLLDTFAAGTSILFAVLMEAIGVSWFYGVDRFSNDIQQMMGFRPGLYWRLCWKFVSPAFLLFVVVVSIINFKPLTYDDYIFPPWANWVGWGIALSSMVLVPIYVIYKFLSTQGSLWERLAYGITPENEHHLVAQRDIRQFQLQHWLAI

[10] = target: Alpha-2A adrenergic receptor (Homo sapiens) (UniProt P08913); details: Compound concentration 10.0 uM
Alpha-2A adrenergic receptor (Homo sapiens), sequence (P08913 whole entry): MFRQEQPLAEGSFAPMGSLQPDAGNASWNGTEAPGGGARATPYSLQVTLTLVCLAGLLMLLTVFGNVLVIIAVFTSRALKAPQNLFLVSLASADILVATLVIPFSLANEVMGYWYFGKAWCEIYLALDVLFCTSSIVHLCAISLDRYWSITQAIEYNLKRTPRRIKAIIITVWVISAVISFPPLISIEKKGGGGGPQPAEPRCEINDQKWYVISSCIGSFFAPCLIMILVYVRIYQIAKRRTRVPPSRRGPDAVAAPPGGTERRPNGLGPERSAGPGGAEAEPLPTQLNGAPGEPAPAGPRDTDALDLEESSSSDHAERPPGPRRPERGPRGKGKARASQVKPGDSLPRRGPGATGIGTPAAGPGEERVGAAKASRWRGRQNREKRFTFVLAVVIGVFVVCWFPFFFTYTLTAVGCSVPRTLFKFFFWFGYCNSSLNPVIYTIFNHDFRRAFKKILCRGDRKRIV

[11] = target: Sigma non-opioid intracellular receptor 1 (Homo sapiens) (UniProt Q99720); details: Compound concentration 10.0 uM
Sigma non-opioid intracellular receptor 1 (Homo sapiens), sequence (Q99720 whole entry, the tested form may be a part): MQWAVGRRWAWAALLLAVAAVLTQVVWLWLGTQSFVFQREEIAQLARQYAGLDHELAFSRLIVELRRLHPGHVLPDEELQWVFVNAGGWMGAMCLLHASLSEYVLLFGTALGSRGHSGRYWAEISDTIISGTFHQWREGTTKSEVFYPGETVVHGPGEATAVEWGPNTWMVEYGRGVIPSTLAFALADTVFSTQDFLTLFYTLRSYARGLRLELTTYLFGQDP

[12] = target: T1, Zinc finger and BTB domain-containing protein 11 (Homo sapiens) (UniProt O95625); details: SUD4, Compound concentration 1.0 uM
T1 sequence (whole entry): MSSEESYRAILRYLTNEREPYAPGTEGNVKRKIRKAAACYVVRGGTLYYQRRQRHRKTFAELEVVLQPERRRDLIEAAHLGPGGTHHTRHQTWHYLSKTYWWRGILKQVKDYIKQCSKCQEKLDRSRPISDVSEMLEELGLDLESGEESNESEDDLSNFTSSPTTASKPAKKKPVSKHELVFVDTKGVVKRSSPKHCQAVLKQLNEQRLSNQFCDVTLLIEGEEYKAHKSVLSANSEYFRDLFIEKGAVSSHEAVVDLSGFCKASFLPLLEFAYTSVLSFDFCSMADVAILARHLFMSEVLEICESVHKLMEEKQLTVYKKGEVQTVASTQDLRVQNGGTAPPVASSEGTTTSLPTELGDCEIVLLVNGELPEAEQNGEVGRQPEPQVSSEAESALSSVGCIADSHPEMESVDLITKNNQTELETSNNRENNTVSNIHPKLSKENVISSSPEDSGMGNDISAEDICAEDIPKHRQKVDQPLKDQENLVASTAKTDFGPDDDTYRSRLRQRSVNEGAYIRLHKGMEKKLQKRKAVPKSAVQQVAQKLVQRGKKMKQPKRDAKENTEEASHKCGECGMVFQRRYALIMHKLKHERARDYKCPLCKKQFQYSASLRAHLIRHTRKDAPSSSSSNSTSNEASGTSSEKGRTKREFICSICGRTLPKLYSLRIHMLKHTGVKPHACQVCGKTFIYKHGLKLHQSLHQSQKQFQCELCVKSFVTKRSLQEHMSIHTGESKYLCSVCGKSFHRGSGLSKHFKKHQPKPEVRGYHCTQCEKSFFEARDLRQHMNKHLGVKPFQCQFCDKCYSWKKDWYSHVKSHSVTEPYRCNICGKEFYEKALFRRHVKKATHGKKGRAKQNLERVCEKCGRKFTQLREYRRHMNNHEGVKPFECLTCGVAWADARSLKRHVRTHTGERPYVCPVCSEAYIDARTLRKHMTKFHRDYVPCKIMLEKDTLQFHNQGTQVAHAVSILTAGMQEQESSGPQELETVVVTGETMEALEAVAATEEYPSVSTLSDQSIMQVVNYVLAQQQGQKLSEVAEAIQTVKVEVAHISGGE

[13] = target: T2, Zinc finger protein 131 (Homo sapiens) (UniProt P52739); details: OCI-Ly1, Compound concentration 1.0 uM
T2 sequence (whole entry): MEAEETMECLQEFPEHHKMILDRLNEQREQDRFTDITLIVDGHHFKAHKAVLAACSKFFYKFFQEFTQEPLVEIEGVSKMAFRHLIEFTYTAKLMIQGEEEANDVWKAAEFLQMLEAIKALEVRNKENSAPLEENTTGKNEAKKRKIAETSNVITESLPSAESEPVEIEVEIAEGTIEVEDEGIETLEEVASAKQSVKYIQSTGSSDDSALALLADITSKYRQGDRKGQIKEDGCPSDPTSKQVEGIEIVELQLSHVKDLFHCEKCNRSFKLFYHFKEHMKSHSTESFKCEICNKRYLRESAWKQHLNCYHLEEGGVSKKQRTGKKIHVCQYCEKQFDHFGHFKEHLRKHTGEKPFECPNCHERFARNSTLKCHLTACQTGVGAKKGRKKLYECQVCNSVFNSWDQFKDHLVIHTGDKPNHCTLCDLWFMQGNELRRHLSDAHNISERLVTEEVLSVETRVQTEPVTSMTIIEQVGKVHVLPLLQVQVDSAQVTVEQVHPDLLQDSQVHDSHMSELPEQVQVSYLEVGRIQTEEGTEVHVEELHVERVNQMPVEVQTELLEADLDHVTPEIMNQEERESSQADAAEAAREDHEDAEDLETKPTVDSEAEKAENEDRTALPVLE

Bone morphogenetic protein receptor type-2 (Homo sapiens), sequence (Q13873 whole entry): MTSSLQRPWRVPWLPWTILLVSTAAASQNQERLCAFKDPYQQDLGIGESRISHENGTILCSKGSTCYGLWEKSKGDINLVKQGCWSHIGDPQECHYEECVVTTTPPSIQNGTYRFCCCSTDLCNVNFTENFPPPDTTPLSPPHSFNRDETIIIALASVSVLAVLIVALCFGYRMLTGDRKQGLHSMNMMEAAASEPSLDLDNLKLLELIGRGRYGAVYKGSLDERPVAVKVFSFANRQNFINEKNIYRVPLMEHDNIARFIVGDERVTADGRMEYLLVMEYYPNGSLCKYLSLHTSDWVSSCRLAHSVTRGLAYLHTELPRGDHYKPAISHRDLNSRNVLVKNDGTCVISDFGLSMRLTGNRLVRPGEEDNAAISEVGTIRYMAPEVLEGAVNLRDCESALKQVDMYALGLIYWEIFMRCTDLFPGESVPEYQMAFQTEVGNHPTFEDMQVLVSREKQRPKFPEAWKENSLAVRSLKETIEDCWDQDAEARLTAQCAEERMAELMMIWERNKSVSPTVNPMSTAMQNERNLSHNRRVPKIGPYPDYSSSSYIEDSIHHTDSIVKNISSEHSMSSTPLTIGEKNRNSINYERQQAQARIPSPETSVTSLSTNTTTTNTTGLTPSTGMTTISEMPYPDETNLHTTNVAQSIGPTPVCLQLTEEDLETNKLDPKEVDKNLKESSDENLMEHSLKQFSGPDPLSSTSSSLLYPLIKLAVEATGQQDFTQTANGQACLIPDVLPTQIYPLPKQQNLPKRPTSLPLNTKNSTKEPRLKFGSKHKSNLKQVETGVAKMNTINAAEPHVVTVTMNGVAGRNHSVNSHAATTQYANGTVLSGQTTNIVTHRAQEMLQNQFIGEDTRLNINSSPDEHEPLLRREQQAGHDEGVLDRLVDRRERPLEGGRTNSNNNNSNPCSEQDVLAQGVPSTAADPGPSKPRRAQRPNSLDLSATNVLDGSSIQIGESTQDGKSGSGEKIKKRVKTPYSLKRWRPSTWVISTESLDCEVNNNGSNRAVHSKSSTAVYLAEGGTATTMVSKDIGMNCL

C[C@@H]1CN(c2ncc(Cl)c(Nc3ccc4c(c3)n(CCC(C)(C)O)c(=O)n4C)n2)C[C@H](C)C1(F)F
inactive: Tm [1] 51 °C | Tm (Peregrin (Homo sapiens)) 44 °C | Tm [2] 40 °C | Tm [3] 48 °C | Tm [4] 40 °C | Tm [5] 37 °C | Tm [6] 56 °C | Tm [7] 43 °C | inhibition [8] 3.94% | inhibition [9] 18.1% | inhibition [10] 14% | inhibition [11] 47.4% | LogFC [12] 0.0341 | LogFC [13] -0.712
